Measured values from patent publication US20170355736A1, “MORTALIN PEPTIDES AND ANTIBODIES AND USES THEREOF FOR INHIBITING MORTALIN ACTIVITY AND TREATING A DISEASE ASSOCIATED WITH A PATHOLOGICAL CELL” (Ramot at Tel-Aviv University Ltd., priority 2014, published 2017).

Experiments:
[1] = molecular target: mortalin-C9 binding (Homo sapiens, UniProt P02748); assay: ELISA of mortalin binding to C9 with or without mortalin peptides; design: key: ↑: enhance; ↓: inhibit; ↑↓: effect depends on dose/time; —: no effect; conditions: summary of in vitro effects
mortalin-C9 binding, sequence (P02748 22-559): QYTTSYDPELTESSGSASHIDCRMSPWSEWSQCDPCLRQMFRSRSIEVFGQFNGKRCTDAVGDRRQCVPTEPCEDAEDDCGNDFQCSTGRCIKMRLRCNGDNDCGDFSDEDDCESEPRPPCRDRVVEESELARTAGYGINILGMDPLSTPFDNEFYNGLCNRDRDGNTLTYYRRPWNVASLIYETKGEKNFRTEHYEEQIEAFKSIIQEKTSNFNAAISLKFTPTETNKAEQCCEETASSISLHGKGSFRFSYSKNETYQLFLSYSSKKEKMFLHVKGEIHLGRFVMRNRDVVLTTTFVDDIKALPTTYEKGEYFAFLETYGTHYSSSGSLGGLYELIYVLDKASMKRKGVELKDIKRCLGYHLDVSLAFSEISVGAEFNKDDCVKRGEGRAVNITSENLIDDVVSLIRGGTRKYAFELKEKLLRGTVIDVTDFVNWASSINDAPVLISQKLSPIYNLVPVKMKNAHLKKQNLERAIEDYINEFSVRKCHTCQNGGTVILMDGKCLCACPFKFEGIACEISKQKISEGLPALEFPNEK
Procedure: FIG. 1 is a histogram depicting results of ELISA (enzyme-linked immunosorbent assay) which detected binding of mortalin to C9 in the presence or absence of various mortalin peptides. Purified human C9 (0.057 μM) was attached overnight at 4° C. to wells of a 96-wells plate and then the excess of C9 was washed. Following, His-tagged recombinant mortalin (0.007 μM) was added to the wells for 1 hour at 37° C. with or without the designated peptides (each at a concentration of 170 μM), which were dissolved in 1% BSA (bovine serum albumin). Following incubation with the mortalin and peptides the wells were washed, treated for 1 hour at 37° C. with mouse anti-His antibody (diluted 1:1000) followed by 1 hour incubation at room temperature with peroxidase-labeled goat anti-mouse IgG (diluted 1:10,000), developed with O-phenylenediamine (OPD) and analyzed by an ELISA reader at 492 nm. […]
Methods of detecting the binding between mortalin and C9 are known in the art [Pilzer et al. Int Immunol (2005) 17:1239-1248; Pilzer et al. Int J Cancer (2010). […] After incubation of the C9 and mortalin, the excess of the labeled mortalin and of the peptide is removed by washing the plate, and the amount of labeled mortalin which is bound to the surface-attached C9 protein is determined using an anti-His antibody (e.g., a mouse anti-His antibody). […]

[2] = system: primary B-CLL leukemia cells; assay: Direct cell killing of primary leukemia cell preparations, PI flow cytometry; type: cell-based, human; conditions: peptides with TAT sequence at C-terminal, 20 hours, 50 µM concentration
Procedure: (§1) FIG. 8 is a histogram depicting cell death of B-CLL leukemia cells by mortalin peptides. […] Mortalin peptides numbers 2, 7, 8, 10, 14 and 16 and a scrambled control peptide (PC) were tested. […] Following, the cells were labeled with PI and analyzed by Flow Cytometry. Percent of dead cells (PI positive) was calculated.
as §1, with “FIG. 9” for “FIG. 8”
FIG. 10 is a histogram depicting cell death of B-CLL leukemia cells by mortalin peptides. […] Following, the cells were labeled with PI and analyzed by Flow Cytometry. Percent of dead cells (PI positive) was calculated.
FIG. 11 is a histogram depicting cell death of B-CLL leukemia cells and normal mononuclear cells by mortalin peptides. […] Following, the cells were labeled with PI and analyzed by Flow Cytometry. Percent of dead cells (PI positive) was calculated.
Blood drawing from B-CLL patients was approved by the Helsinki Committee of Rabin Medical Center, Petach Tikvah, Israel. […] The cells were treated for 20 hours with the peptides at […] concentration and cell death was determined by propidium iodide labeling and analysis by flow cytometry. […]

[3] = system: leukemia and lymphoma cell lines; assay: Direct cell killing / direct toxicity (complement independent), overall statement; type: cell-based; design: key: ↑: enhance; ↓: inhibit; ↑↓: effect depends on dose/time; —: no effect; conditions: summary of in vitro effects; complement independent cytotoxicity; cell lines and primary B-CLL cells
Procedure: The toxic effect of these peptides was tested on 3 leukemia/lymphoma cell lines Raji (FIG. 5), Ramos (FIG. 6) and Z-138 (FIG. 7). The cells were treated for 24 hours with the peptides and cell death was determined by propidium iodide labeling and analysis by flow cytometry.
In summary, Table 6 below illustrates the relative effects of some of the peptides on mortalin-C9 binding, C9 polymerization, complement-dependent cytotoxicity and complement independent cytotoxicity (direct toxicity).

[4] = system: Raji cells; assay: Complement independent cytotoxicity, Annexin V/PI, FACS; type: cell-based, human; conditions: stand-alone treatment, 0.8 mM, 24 hours
Excerpt: (§2) Then, the cells were labeled with Annexin/PI and analyzed by Flow Cytometry. FIG. 3A—a histogram depicting the percent of dead cells (Annexin and PI positive) as calculated. FIGS. 3B-D—representative images of cells in control (FIG. 3B) and peptide-treated groups [FIG. 3C (treated with peptide no. 14) and FIG. 3D (treated with peptide no. 16)] stained by DAPI and observed under a fluorescence microscope.
(§3) The complement independent cytotoxic effect of the peptides—To address the toxic effect of the peptides as single agents, the present inventor tested the effect of the peptides no. 14 and 16 on K562 and Raji human cancer cells. The cells were incubated with the peptides for 24-48 hours in growth medium and then tested for apoptosis using an Annexin V/PI (Propidium Iodide) staining kit followed by FACS analysis.

[5] = system: K562 cells; assay: as above; type: cell-based, human; conditions: stand-alone treatment, 0.8 mM, 24 hours
Procedure: as §2, with “Raji or K562 cells were treated without (C) or with 2 mM peptides for 48 hours in their culture medium. Then,” for “Then,”
as §3

[6] = molecular target: Purified human C9 (Homo sapiens, UniProt P02748); assay: Zinc-induced C9 polymerization, SDS-PAGE/Coomassie; type: biochemical
Purified human C9, sequence (P02748 22-559): as above
Procedure: FIGS. 2A-B are Coomassie blue stained gels depicting inhibition of C9 polymerization by mortalin or the isolated mortalin peptides. Purified human C9 ([…]) was mixed for 15 minutes at 37° C. with BSA ([…]) as control (lanes marked as “BSA”), mortalin ([…], lanes marked as “mot”) or mortalin peptides (1 mM, lanes marked by “p” and the indicated peptide numbers) that were freshly dissolved in Tris buffered saline (TBS); and then incubated with 42 μM ZnCl2 for 2 hours at 37° C. The first lane on the left, marked “C9” refers to a positive control of the purified C9 without BSA, without mortalin or without the isolated peptides. Samples were subjected to SDS-PAGE on a 2.5-14% acrylamide gradient gel and stained with Coomassie blue. The bands of poly C9 appearing on the top part of the gel are indicated. FIGS. 2A and 2B represent two independent experiments.
The effect of the peptides on C9 polymerization—Formation of the complement membrane pores requires that multiple C9 molecules undergo polymerization and generate the doughnut-shape transmembrane complex; thus the effect of the peptides on C9 polymerization was tested. C9 polymerization occurs during C5b-9 generation [Podack and Tschopp, Proc Natl Acad Sci USA. (1982) 79(2):574-8]. […] C9 was mixed with peptides and 42 μM ZnCl2 for 2 hours and the samples were analyzed by SDS-PAGE, on a 2.5-14% acrylamide gradient gel. […]

[7] = system: K562 cells; assay: Complement-dependent cytotoxicity (CDC), antibody + normal human serum, PI inclusion/FACS; type: cell-based; conditions: summary of in vitro effects
Procedure: K562 cells were either pre-incubated with peptides (60 minutes at 37° C.) and then treated with Rabbit anti-K562 polyclonal antiserum (Ab) and normal human serum (as a source for complement) or treated with Ab and complement in presence of the peptide [Ziporen et al. J. Immunol. (2009) 182: 515-21]. Cell death was measured by PI (Propidium Iodide) inclusion and FACS analysis, after 1 hour treatment at 37° C. The effect of the peptides on complement-dependent cytotoxicity—The next objective was to determine which of the peptides could alter cell death and sensitize cancer cells to complement-dependent cytotoxicity (CDC). Thus, cells were incubated with the peptides prior to antibody and complement treatment (denoted herein as pre-incubation) or treated concomitantly with antibody and complement in the presence of the peptides (denoted herein as without pre-incubation). It should be noted that in cases where the peptide was incubated with the cells prior to addition of the antibody and complement (serum) (noted as “preincubation”) cell cytotoxicity begins as complement independent, and then, upon addition of the antibody and complement can continue as complement dependent. […]

CSCC[C@H](NC(=O)[C@H](Cc1ccc(O)cc1)NC(=O)[C@H](CC(C)C)NC(=O)[C@H](CCC(=O)O)NC(=O)[C@H](CO)NC(=O)[C@H](CCCCN)NC(=O)[C@H](C)NC(=O)[C@H](CCCCN)NC(=O)[C@H](CCC(=O)O)NC(=O)[C@H](C)NC(=O)[C@H](C)NC(=O)[C@H](CCC(=O)O)NC(=O)[C@H](CCCNC(=N)N)NC(=O)[C@@H](NC(=O)[C@H](CCCNC(=N)N)NC(=O)[C@H](CCC(N)=O)NC(=O)[C@H](CC(C)C)NC(=O)[C@H](C)NC(=O)[C@H](CCSC)NC(=O)[C@@H](N)CC(N)=O)C(C)C)C(=O)NCC(=O)N[C@@H](CCCNC(=N)N)C(=O)N[C@@H](CCCCN)C(=O)N[C@@H](CCCCN)C(=O)N[C@@H](CCCNC(=N)N)C(=O)N[C@@H](CCCNC(=N)N)C(=O)N[C@@H](CCC(N)=O)C(=O)N[C@@H](CCCNC(=N)N)C(=O)N[C@@H](CCCNC(=N)N)C(=O)N[C@@H](CCCNC(=N)N)C(=O)O [Peptide 8, NMALQRVREAAEKAKSEL]
Mortalin-C9 binding [1]: — | cell killing effect on primary leukemia cells [2]: cell killing effect | Direct toxicity [3]: ↑ (*)—

MVKNAEKYAEEDRYMGRKKRRQRRR (synthetic peptide (TAT modified peptide 14)) [TAT-peptide no: 14]
capacity to induce apoptosis, TAT-modified versus native peptide no: 14 [4]: markedly enhanced the capacity of peptide no: 14 to induce apoptosis | capacity to induce apoptosis, TAT-modified versus native peptide no: 14 [5]: markedly enhanced the capacity of peptide no: 14 to induce apoptosis

Mortalin: human mortalin protein, member of the HSP70 family (SEQ ID NO: 24), recombinant
effect on C9 polymerization ([6]; peptides 1 mM, mortalin 1.4 mM, 42 μM ZnCl2, 2 hours, 37° C., poly C9 band on gel): completely inhibited C9 polymerization | C9 polymerization ([6]; summary of in vitro effects): ↓↓↓ | Effect on CDC [7]: ↓↓↓ | Direct toxicity [3]: —
